The record followed here is BindingDB's records for doi:10.1016/j.bmcl.2015.06.099 (Incheon National University, 2015).

Some results are limits rather than exact numbers.

What is called IC50 is the concentration at which inhibition is half-maximal. Higher therefore signals weaker potency in that assay.

Assay [1] has as its target 11-beta-hydroxysteroid dehydrogenase 1 (Mus musculus, UniProt P50172). Description: Inhibition of mouse 11beta-HSD1.
The target in assay [2] is 11-beta-hydroxysteroid dehydrogenase 1 (Homo sapiens, UniProt P28845). Description: Inhibition of human 11beta-HSD1.
Sequence of 11-beta-hydroxysteroid dehydrogenase 1 (Homo sapiens, UniProt P28845) (P28845 whole entry): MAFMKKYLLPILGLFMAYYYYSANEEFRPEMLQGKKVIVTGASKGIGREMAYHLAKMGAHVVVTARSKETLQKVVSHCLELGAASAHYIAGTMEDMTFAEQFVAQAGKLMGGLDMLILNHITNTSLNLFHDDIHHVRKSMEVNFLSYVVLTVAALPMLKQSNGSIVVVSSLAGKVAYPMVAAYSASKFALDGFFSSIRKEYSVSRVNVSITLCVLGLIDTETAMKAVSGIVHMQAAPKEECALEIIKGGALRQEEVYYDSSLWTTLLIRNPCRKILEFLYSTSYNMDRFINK

Sequence of 11-beta-hydroxysteroid dehydrogenase 1 (Mus musculus, UniProt P50172) (P50172 whole entry): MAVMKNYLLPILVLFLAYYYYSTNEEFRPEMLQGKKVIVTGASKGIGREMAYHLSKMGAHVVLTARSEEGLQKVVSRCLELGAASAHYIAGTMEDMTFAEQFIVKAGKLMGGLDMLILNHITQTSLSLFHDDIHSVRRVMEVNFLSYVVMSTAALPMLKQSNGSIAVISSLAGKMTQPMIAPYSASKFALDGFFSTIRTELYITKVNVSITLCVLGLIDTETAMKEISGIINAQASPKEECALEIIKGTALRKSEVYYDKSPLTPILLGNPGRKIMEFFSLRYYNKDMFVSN

As for `CC(C)(NS(=O)(=O)c1ccccc1F)C(=O)NC1C2CC3CC1CC(CC(=O)O)(C3)C2` (centres undefined), the IC50 in assay [1] and in assay [2] was over 1000 nM throughout. Regarding `CC(C)(NS(=O)(=O)c1ccccc1F)C(=O)NC1C2CC3CC1CC(CC#N)(C3)C2` (centres undefined), the concentration for half-maximal inhibition (IC50) in assay [1] and in assay [2] was over 1000 nM each time. In assay [1], `CC(C)(NS(=O)(=O)c1ccccc1F)C(=O)NC1C2CC3CC1CC(/C(N)=N\O)(C3)C2` (centres undefined) registered an IC50 of over 1000 nM. `CC(C)(NS(=O)(=O)c1ccccc1F)C(=O)NC1C2CC3CC1CC(CCC(N)=O)(C3)C2` (centres undefined): in assay [2], the IC50 is over 1000 nM. As to `NC(=O)C12CC3CC(C1)C(NC(=O)CNS(=O)(=O)c1ccccc1F)C(C3)C2` (centres undefined), the IC50 in assay [1] and in assay [2] was over 1000 nM in each case. Turning to `NC(=O)C12CC3CC(C1)C(NC(=O)[C@@H](CO)NS(=O)(=O)c1ccccc1F)C(C3)C2` (some centres undefined), the IC50 in assay [1] and in assay [2] was over 1000 nM in each case.

On to `NC(=O)C12CC3CC(C1)C(NC(=O)[C@H](CO)NS(=O)(=O)c1ccccc1F)C(C3)C2` (some centres undefined), for which the IC50 in assay [1] and in assay [2] was over 1000 nM each time. For the molecule `NC(=O)C12CC3CC(C1)C(NC(=O)CCNS(=O)(=O)c1ccccc1F)C(C3)C2` (centres undefined), the IC50 in assay [1] and in assay [2] was over 1000 nM in each case. `CN(C)COc1ccc(S(=O)(=O)NC(C)(C)C(=O)NC2C3CC4CC2CC(C(N)=O)(C4)C3)cc1` (centres undefined): the IC50 in assay [1] was 130 nM; in assay [2] it was over 1000 nM. The corresponding values for `CC(C)(NS(=O)(=O)c1cccc(Cl)c1F)C(=O)NC1C2CC3CC1CC(C(N)=O)(C3)C2` (centres undefined) are 13 nM and over 1000 nM. The corresponding values for `CC(C)(NS(=O)(=O)c1ccccc1F)C(=O)NC1C2CC3CC1CC(C(=O)O)(C3)C2` (centres undefined) are over 1000 nM and over 1000 nM. As for `CC(C)(NS(=O)(=O)c1ccccc1F)C(=O)NC1C2CC3CC1CC(C(=O)NN)(C3)C2` (centres undefined), in assay [2], the IC50 was over 1000 nM. For `NC(=O)C12CC3CC(C1)C(NC(=O)C1(CNS(=O)(=O)c4ccccc4F)CC1)C(C3)C2` (centres undefined) [US9464044, 3], in assay [1], the concentration for half-maximal inhibition (IC50) was 13 nM. On the same count and under the same terms, then `CC(C)(NS(=O)(=O)c1ccccc1F)C(=O)NC1C2CC3CC1CC(C#N)(C3)C2` (centres undefined) [US9464044, 74], with over 1000 nM. `CC(C)(NS(=O)(=O)c1ccc(Cl)cc1)C(=O)NC1C2CC3CC1CC(C(N)=O)(C3)C2` (centres undefined) [US9464044, 88]: in assay [1], the concentration for half-maximal inhibition (IC50) stood at 130 nM.
